PubChem BioAssay (NCI)
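Tested at 5 concentrations; 48 h exposure; 96-well plates; endpoints linearly interpolated, else capped at highest concentration. Here, GI50 denotes the concentration required for 50% inhibition of growth. Definition used: TGI = concentration required for complete inhibition of growth.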

Columns and labels:
Experiment in all cases: NCI tumour cell line growth inhibition, 48 h
[1] = test system: DLD-1 colon
[2] = test system: DMS 114 small cell lung
[3] = test system: KM20L2 colon
[4] = test system: LXFL 529 NSCLC
[5] = test system: SNB-78 CNS
[6] = test system: MDA-N
[7] = test system: RXF-631 renal
[8] = test system: DMS 273 small cell lung
[9] = test system: HOP-18 NSCLC
[10] = test system: P388/ADR leukemia
[11] = test system: P388 leukemia
[12] = test system: SN12K1 renal

SMILES | TGI [1] | TGI [2] | TGI [3] | TGI [4] | TGI [5] | TGI [7] | TGI [8] | TGI [9] | also measured
O=C(N/N=C1/C(=O)N(c2ccc(Cl)cc2Cl)C(=O)C(=O)C1c1nc2ccccc2o1)c1ccccc1O (stereo not drawn) | > 100 µM | 78.5 µM | > 100 µM | > 100 µM |  |  |  |  | 
O=C(NC(=O)c1cn(CCNCCO)c(=O)[nH]c1=O)OCc1ccccc1 | > 100 µM | > 100 µM |  | > 100 µM | > 100 µM |  |  |  | 
C1CSCCSCCS1 |  |  |  |  |  |  |  |  | TGI [6]: > 100 µM
CCC1C2C=CC(CC2)N1S(=O)(=O)c1ccc(C)cc1 (stereo not drawn) |  | 58.1 µM | 38.2 µM | 55.5 µM |  | > 100 µM | 60.2 µM |  | 
Cc1ccc(S(=O)(=O)N/N=C/c2oc(-c3ccncc3)c(-c3ccncc3)c2[N+](=O)[O-])cc1 | > 100 µM |  | > 100 µM | > 100 µM | > 100 µM | > 100 µM | > 100 µM | > 100 µM | 
CCN1CCN=c2c3cc(OC)ccc3n3cnc4ccc1c2c43 |  |  |  |  |  |  |  |  | TGI [6]: 1.11 µM
O=C1NC(=S)NNC12c1ccccc1-c1ccccc12 |  |  |  |  |  |  |  |  | TGI [6]: > 10 µM
O=C(O)CSc1n[nH]c(-c2ccccc2)n1 | > 100 µM |  | > 100 µM | > 100 µM |  |  | > 100 µM | > 100 µM | 
c1ccc(SC2CCSc3ccccc3C2Sc2ccccc2)cc1 (stereo not drawn) | > 100 µM |  | > 100 µM | > 100 µM | > 100 µM |  | > 100 µM |  | 
O=c1n(-c2ccccc2)c(=O)n2n1C1C=CC2C2C(C1)C2(Cl)Cl (stereo not drawn) | > 100 µM | > 100 µM | > 100 µM | > 100 µM | > 100 µM | > 100 µM | > 100 µM |  | 
N=c1ccn2c(n1)OC1C(O)C(CO)OC12 (stereo not drawn) | > 1000 µM | > 163 µM | > 562 µM |  | > 1000 µM |  | > 364 µM | > 662 µM | TGI [10]: 5.13 µM; TGI [11]: 4.37 µM; TGI [12]: > 1000 µM
Oc1cc(O)c2c(c1)OC(c1ccc(O)c(O)c1)C(OC1(c3cc(O)c(O)c(O)c3)Oc3cc(O)cc(O)c3C(O)C1O)C2 (stereo not drawn) |  |  |  |  |  |  |  |  | TGI [6]: 49.5 µM
CCOc1ccc2c(c1)[n+]([O-])c(-c1ccccc1Cl)c(N)[n+]2[O-] | > 100 µM | > 100 µM | > 100 µM | > 100 µM | > 100 µM | > 100 µM | > 100 µM | > 100 µM | 
O=C1c2ccccc2C2(O)c3cc4ccccc4cc3OC12O (stereo not drawn) | > 100 µM | 99 µM | > 100 µM | > 100 µM | > 100 µM |  | > 100 µM | > 100 µM | 
Cc1ccc(-c2nc3ccc([N+](=O)[O-])cc3[nH]2)cc1 |  |  |  |  |  |  |  |  | TGI [6]: > 100 µM
CC1=C2CCCC2=C/C(=N/Nc2ccc([N+](=O)[O-])cc2[N+](=O)[O-])CC1 | > 100 µM | > 100 µM | > 100 µM | > 100 µM | > 100 µM |  | > 100 µM | > 100 µM | 
CC(=O)n1c2c(c(=O)n1-c1ccccc1)S(=O)CCC2 (stereo not drawn) | > 100 µM | > 100 µM | > 100 µM | > 100 µM | > 100 µM | > 100 µM | > 100 µM |  | 
COc1ccc(/C(=N\NC(=O)C(N)=O)C(c2ccc(OC)cc2)C2(O)C(=O)Nc3c(Cl)cccc32)cc1 (stereo not drawn) | > 100 µM | > 100 µM | > 100 µM | > 100 µM | > 100 µM |  |  | > 100 µM | 
O=C(CSc1nnc(-c2ccc(N=Cc3ccc(Cl)cc3)cc2)o1)Nc1ccc(Cl)cc1 |  | > 100 µM | > 100 µM | > 100 µM | > 100 µM |  | > 100 µM | > 100 µM | 
COc1ccc(-c2cc(-c3ccccc3)c(C#N)c(=O)n2C2OC(CO)C(O)C(O)C2O)cc1 (stereo not drawn) | > 100 µM | > 100 µM | > 100 µM | > 100 µM | > 100 µM | > 100 µM | > 100 µM | > 100 µM | 
CCOC(=O)C1(c2ccccc2)CCC(=O)CC1 | > 100 µM | > 100 µM | > 100 µM | > 100 µM | > 100 µM | > 100 µM | > 100 µM | > 100 µM | 
CC(=O)O[C@H]1CCC2[C@@H]3CCC4=C(O)c5nocc5C[C@]4(C)C3CC[C@@]21C (stereo partly drawn) |  | > 100 µM | > 100 µM | > 100 µM | > 100 µM |  | > 100 µM | > 100 µM | 

SMILES | TGI [1] | TGI [2] | TGI [3] | TGI [4] | TGI [5] | TGI [7] | TGI [8] | TGI [9] | also measured
CC(=O)OC12c3ccccc3-c3ccccc3C1C1C(=O)N(C)C(=O)C12Cl (stereo not drawn) |  |  |  |  |  |  |  |  | TGI [6]: > 10 µM
COc1ccc2oc(-c3cccnc3)cc(=O)c2c1 | > 100 µM | > 100 µM |  | > 100 µM |  | > 100 µM | > 100 µM |  | 
O=c1c2ccccc2sc2cccc(NCCCN3CCN(CCCNc4cccc5sc6ccccc6c(=O)c45)CC3)c12 |  |  |  |  |  |  |  |  | TGI [6]: > 100 µM
CCOC(=O)C(C)(C)Oc1ccc2c(C)c(-c3ccc(Cl)cc3)c(=O)oc2c1 | > 100 µM | > 100 µM | > 100 µM | > 100 µM |  | > 100 µM | > 100 µM |  | 
O=C1CC(C[C@H](O)C2CCCCC2O)CC(=O)N1Cc1ccccc1 (stereo partly drawn) | > 100 µM |  | > 100 µM | > 100 µM | > 100 µM | > 100 µM | > 100 µM | > 100 µM | 
O=C1[C@@H]2C3c4ccccc4C([C@@H]2C(=O)N1c1ccccc1)S3(=O)=O | > 100 µM | > 100 µM | > 100 µM | > 100 µM | > 100 µM | > 100 µM | > 100 µM | > 100 µM | 
Cc1ccc(Cn2c(C)nc3c2C(=O)c2ccccc2C3=O)cc1 | > 100 µM |  | > 100 µM | 58 µM | > 100 µM |  | 19 µM |  | 
COC1[C@@H](OC(C)=O)[C@@H](NC(=O)C(Cl)(Cl)Cl)C(I)[C@@H](N2C(=O)c3ccccc3C2=O)[C@H]1OC (stereo partly drawn) | > 100 µM | > 100 µM | > 100 µM | > 100 µM | > 100 µM |  | > 100 µM | > 100 µM | 
O=C(Nc1cc(Cl)ccc1Cl)c1cc2cccc(Cl)c2oc1=O | > 100 µM | > 100 µM | > 100 µM |  |  |  | > 100 µM | > 100 µM | 
Cc1ccc(NC(=O)C2C(=O)N(c3ccc(C)c(C)c3)C(=O)C2N=N)cc1C (stereo not drawn) | > 100 µM | > 100 µM | > 100 µM | > 100 µM | > 100 µM | > 100 µM | > 100 µM | > 100 µM | 
CCCCCCC[CH2][Sn]1([CH2]CCCCCCC)[O]C(=O)c2cccnc2[S]1 | > 100 µM | > 100 µM | > 100 µM | > 100 µM | > 100 µM | > 100 µM | > 100 µM |  | GI50 [7]: > 100 µM; GI50 [1]: > 100 µM; GI50 [2]: > 100 µM; GI50 [3]: > 100 µM; GI50 [4]: > 100 µM; GI50 [5]: > 100 µM; GI50 [8]: > 100 µM
O=C(NCCCCN=c1cccccc1NCCCCNC(=O)OCc1ccccc1)OCc1ccccc1 | 43.6 µM | 29.4 µM | 26.1 µM |  | 71.1 µM | 26.1 µM | 31.3 µM |  | 
O=C(c1ccc(Cl)cc1)c1cnc(Nc2ccccc2Cl)s1 | > 100 µM | 66.7 µM |  | 32.8 µM |  |  | 42.9 µM |  | TGI [6]: 50.1 µM
Cc1c(Cl)cccc1N1C(=O)C(Cl)=C(Cl)C1=O | > 100 µM | > 100 µM | > 100 µM | > 100 µM | > 100 µM |  | > 100 µM | > 100 µM | 
C[C@H]1NC(=O)C2CCCCN2C(=O)CN(C)C(=O)CNC(=O)C2CCCCN2C(=O)[C@@H](NC(=O)c2nc3ccccc3cc2O)[C@@H](C)NC(=O)C2CCCCN2C(=O)CN(C)C(=O)CNC(=O)[C@@H]2CCCCN2C(=O)C1NC(=O)c1nc2ccccc2cc1O (stereo partly drawn) |  | 0.703 µM | 10.4 µM | 0.646 µM | 11.5 µM |  | 1.07 µM |  | 
O=C(CC(O)(C(F)(F)F)C(F)(F)F)c1cc(CC(=O)C(O)(C(F)(F)F)C(F)(F)F)cc(CC(=O)C(O)(C(F)(F)F)C(F)(F)F)c1 |  |  |  |  |  |  |  |  | TGI [6]: > 9.13 µM
O=C(O)[C@H](NS(=O)(=O)c1ccc2ccccc2c1)c1ccccc1 | > 100 µM |  | > 100 µM | > 100 µM |  | > 100 µM | > 100 µM | > 100 µM | 
COC1C(O)=C2C(=O)O/C(C)=C/C=C/C=C/C=C\CC(c3ccccc3)NC(=O)\C=C/C=C\C=C\C=C\[C@@]2(C)[C@@H]1O (stereo partly drawn) | 0.147 µM | 0.357 µM | 0.165 µM |  |  |  |  |  | TGI [6]: 0.265 µM
CCc1cccc(C)c1NC(=O)C(=O)Cc1nc2ccccc2o1 | > 100 µM | > 100 µM | > 100 µM | > 100 µM | > 100 µM |  |  | > 100 µM | 
CCOC(=O)NC(=O)c1cn(CCOC(=O)NCCCCCCNC(=O)OCCn2cc(C(=O)NC(=O)OCC)c(=O)[nH]c2=O)c(=O)[nH]c1=O | > 100 µM | > 100 µM | > 100 µM | > 100 µM | > 100 µM |  | > 100 µM | > 100 µM | 
CCOc1ccc(N2C(=O)/C(=C/c3ccc(N(CCC#N)CCC#N)cc3)N=C2c2cc([N+](=O)[O-])ccc2Cl)cc1 | > 100 µM | > 100 µM |  | 95 µM | > 100 µM | > 100 µM | 40.8 µM | > 100 µM | 
CN(C)c1c([O-])c(=[N+](C)C)c1=O |  |  |  | > 100 µM | > 100 µM |  | > 100 µM |  | 
